Data: publication PMC8861431, “Tissue Pharmacokinetic Properties and Bystander Potential of Hypoxia-Activated Prodrug CP-506 by Agent-Based Modelling” (Frontiers in Pharmacology, 2022)
Like-named read-outs stand apart in the source and are kept apart here.

Experiments:
[1] = Media stability studies (stirred medium without serum, 37°C); format: physicochemical
Procedure: The stability of each compound was determined in stirred medium (without serum) maintained under aerobic conditions by the constant supply of a humidified gas mixture comprised of 21% O2, 5% CO2 with balance N2. Vials were spiked with 100 µM of the relevant compound, and samples were collected using a positive displacement pipettor for up to 3 h thereafter. The collected samples were then treated with two-volumes of ice-cold acetonitrile containing 2 µM of the relevant deuterated (D8) internal standard and stored at −80°C until LC-MS/MS analysis.
The LC system for tandem MS consisted of an Agilent 1200 autosampler (4°C) and binary pump, a 3.0 × 50 mm, 1.8-micron Zorbax SB-C18 column (Agilent; PN: 827975-302) and 2.1 × 7 mm guard column (Alltech, IL) maintained at 35°C, at a pressure of <400 bar and flow rate of 0.3 ml/min. The mobile phase comprised a gradient of 0.01% formic acid in 80% acetonitrile - 20% water, v/v (solvent A), and 0.01% formic acid in water (solvent B). Initial mobile phase composition was 20% solvent A and 80% solvent B, increasing to 60% A (0–3 min) then 80% A (3–5.45 min), returning to initial conditions (5.5–6 min). Post-run time was 1 min, and the total run time was […]. Mass spectrometric detection was carried out using an Agilent 6410 triple quadrupole mass spectrometer equipped with a multimode ionization (MMI) source. The mass spectrometer was operated in electrospray positive ionization mode using multiple reaction monitoring (MRM), with Q1 & Q3 set to unit resolution ([…]). The electrospray ionization parameters, optimized for the parent molecular ion ([M+H]+) abundance were: drying gas temperature 325°C, vaporiser temperature 150°C, drying gas flow 5 L/min, nebuliser pressure 50 psi, capillary voltage 1.8 kV, Delta EMV 300 V. Ultra-pure nitrogen was used as collision gas. The divert valve feature of the Agilent 6410 triple quadrupole mass spectrometer was utilised to prevent the eluate from entering the ionisation source chamber during the first 0.5 min of each run. For CP-506 samples, positively charged ions representing the [M+H]+ for CP-506 and CP-506-D8 were collisionally dissociated to form specific product ions which were monitored in MS2 (unit resolution). The MRM transition, ionization mode, collision energy, dwell time, fragmentor voltage and retention time for all compounds is provided in Supplementary Table S2. Agilent MassHunter software (v.4.04.00) was used for data acquisition and chromatographic peak integration.

POR-R MCLs = test: Multicellular layer (MCL) flux studies / (pro)drug transport model; format: in vitro ADME, human; details: for D s: diffusion coefficient in spheroid: Table 1
Procedure: The extravascular transport properties of CP-506 and its formed metabolites were investigated using a custom-designed diffusion apparatus, as described previously ([Hicks et al., 2006]). Briefly, MCL cultures were established by seeding 1 x 10^6 POR-R cells onto collagen-coated Millicell-CM inserts for 3 days. Established MCLs were placed at the interface of the two media-filled compartments of diffusion chambers. Diffusion chambers were placed in a 37°C water bath and gassed with a supraoxic (95% O2, 5% CO2) or anoxic (5% CO2, bal N2) mixture for at least 1 h prior to drug addition. Flux was initiated by the addition of internal standard ([^14C]-urea) and 20 µM CP-506 to the donor compartment. Samples (100 µl) were collected from both the donor and receiver compartments for up to 5 h thereafter. At each time point, a 25 µl aliquot was mixed with emulsifier-safe water-accepting scintillant and assayed for radioactivity using a Perkin Elmer Tricard 2910 TR liquid scintillation analyser. The remaining sample was treated with two volumes of ice-cold acetonitrile (containing 2 µM of the relevant deuterated internal standards) and stored at −80°C until LC-MS/MS analysis. Similar experiments were performed using collagen-coated inserts without MCLs to deduce the chemical stability and diffusion coefficient of CP-506 across the bare support membrane.
Drug transport in MCLs was modelled as a one-dimensional diffusion with reaction across four consecutive compartments (stirred donor, POR-R MCL, collagen-coated teflon support membrane and stirred receiver) using a custom designed MatLab routine ([Foehrenbacher et al., 2013a]). Model parameters were derived by fitting Eq. 1 and Eq. 2 to the measured concentration-time profile of internal standard [^14C]-urea, CP-506, CP-506H and CP-506M in MCL flux studies. The flux of CP-506 and its metabolites across POR-R MCLs was described using Fick’s second law with a reaction term: ∂CeN/∂t=DN∂^2CeN/∂x^2−klossNCeN− φ( kinNCeN− koutNCiN) (1) ∂CiN/∂t= kmet0(N−1)Ci(N−1)+φ(kinNCeN− koutNCiN)−kmet0NCiN (2) where C is the concentration of the diffusing substance at position x and time t in the extracellular (e) or intracellular (i) compartment, D is the diffusion coefficient through either a bare support membrane (without cells) (D suo ) or extracellular space of a POR-R MCL (D MCL ), k loss is the rate constant for first-order loss (instability) in culture medium, k in and k out are the rate constants for transmembrane transport and k met0 is the rate constant for intracellular metabolism and instability for each compound (N). For metabolites, N-1 represents the previous compound from which the current compound is produced by metabolism. Experimental data was fitted iteratively to derive a tissue diffusion coefficient (DMCL) and metabolic scaling factor (φ i ) to restrain parameter estimates from the cellular PK model (Kin, Kout, Kmet0). The diffusion coefficient for CP-506 across the bare support membrane (Dsup) was determined by solving Eq. 1 with a reaction term only for chemical instability. MCL thicknesses were estimated by fitting the measured [^14C]-urea concentrations to those predicted by Eq. 1 and Eq. 2 without instability or metabolism by using the known diffusion coefficient (DMCL) for [^14C]-urea in HCT-116 MCLs ([Wilson et al., 2004]). The diffusion coefficient (DMCL) for CP-506 in POR-R MCLs was then fitted from the measured concentrations in the donor and receiver compartments of supraoxic experiments by assuming one-directional diffusion in the extracellular space. The metabolic scaling factor (φ i ) was then fitted from the measured concentrations in the donor and receiver compartment of anoxic experiments by fixing parameter estimates to the diffusion coefficient (DMCL) from supraoxic experiments.

[2] = 37°C, aerobic, medium without serum/cells, 100 µM, read-out: Half-life (T1/2) in stirred medium
[3] = buffer, Table 1, stirred culture medium at 37°C, read-out: Half-life: time required to reduce the concentration of drug to half of its initial value (converted)
[4] = assumed equivalent to CP-506 for the active metabolites

Row | Structure (SMILES) | Half-life (T1/2) in stirred medium ([1]; 37°C, aerobic, medium without serum/cells, 100 µM) [min] | half-life at 100 µM [1, 2] [min] | half-life at 100 µM [1, 3] [min] | Fold longer half-life than CP-506H or CP-506M ([1]; stirred medium, Figure 3B) [fold] | D s: diffusion coefficient in spheroid (POR-R MCLs; [4]) | Time without loss of mass balance in stirred medium ([1]; 37°C, aerobic, stirred medium) | D s: diffusion coefficient in spheroid (POR-R MCLs; DMCL fitted in POR-R MCLs under supraoxic conditions) | DMCL: diffusion coefficient across POR-R MCLs (POR-R MCLs; Table S4, anoxia, fixed to the supraoxic value) | DMCL: diffusion coefficient across POR-R MCLs (POR-R MCLs; Table S4, supraoxia) | DMCL: diffusion coefficient across POR-R MCLs (POR-R MCLs; supraoxic experiments)
1 | CCN1CCN(C(=O)c2cc(N(CCCl)CCCl)c(S(C)(=O)=O)cc2N)CC1 [CP-506M-Cl2, (2-Amino-5-(bis(2-chloroethyl)amino)-4-(methylsulfonyl)phenyl)(4-ethylpiperazin-1-yl)methanone] | 271 | 271 | 271 | ≥ 10 | 1.93 × 10^−7 ± 1.8 × 10^−8 cm^2s^−1 |  |  |  |  | 
2 | CCN1CCN(C(=O)c2cc(N(CCBr)CCOS(C)(=O)=O)c(S(C)(=O)=O)cc2N)CC1 [CP-506M, 2-((4-amino-5-(4-ethylpiperazine-1-carbonyl)-2-(methylsulfonyl)phenyl)(2-bromoethyl)amino)ethyl methanesulfonate] |  | 7.6 | 7.8 |  | 1.93 × 10^−7 ± 1.8 × 10^−8 cm^2s^−1 |  |  |  |  | 
3 | CCN1CCN(C(=O)c2cc(N(CCBr)CCOS(C)(=O)=O)c(S(C)(=O)=O)cc2NO)CC1 [CP-506H, 2-((2-bromoethyl)(5-(4-ethylpiperazine-1-carbonyl)-4-(hydroxyamino)-2-(methylsulfonyl)phenyl)amino)ethyl methanesulfonate] |  | 10.5 | 10.8 |  | 1.93 × 10^−7 ± 1.8 × 10^−8 cm^2s^−1 |  |  |  |  | 
4 | CCN1CCN(C(=O)c2cc(N(CCBr)CCOS(C)(=O)=O)c(S(C)(=O)=O)cc2[N+](=O)[O-])CC1 [CP-506, 2-[(2-bromoethyl)-5-[(4-ethyl-1-piperazinyl)carbonyl]-2-(methylsulfonyl)-4-nitroanilino]ethyl methanesulfonate] |  |  | 1800 |  |  | over 360 min | 1.93 × 10^−7 ± 1.8 × 10^−8 cm^2s^−1 | 1.93 (fixed) x 10^-6 cm^2 s^-1 | 1.93 ± 0.01 (6) x 10^-6 cm^2 s^-1 | 1.93 ± 0.011 x 10^−7 cm^2s^−1
